From patent publication US9169290B2, “Peptides and their use” (priority 2007, dated 2015) come the findings set out here.

One assay relates to C. albicans. The format is cell-based, Candida albicans. The protocol: (§1) Broth Dilution Antifungal Susceptibility Testing
(§2) The sensitivity of relevant fungal strains to the peptides was determined using Clinical Laboratory Standard Institute (CLSI; formerly NCCLS) Approved Standards.

A further assay relates to C. krusei. The format is cell-based, Candida krusei. The protocol: as §1, §2
The next assay concerns Malasezzia furfur. It is filed as cell-based. As for the experimental part: as §1, §2
Another assay has as its system Trichophyton rubrum. The format is cell-based. As for the experimental part: as §1, §2
The next assay relates to C. parapsilosis. It is filed as cell-based, Candida parapsilosis. As for the experimental part:
as §1
The sensitivity of relevant fungal strains to the peptides was determined using Clinical Laboratory Standard Institute (CLSI; formerly NCCLS) Approved Standards. Fungal susceptibility was tested using “Reference Method for Broth Dilution Antifungal Susceptibility Testing of Filamentous Fungi; […];

The next assay has as its system C. tropicalis. The assay is described as follows: Broth dilution antifungal susceptibility testing of yeasts (CLSI M27-A), MIC. The format is cell-based, Candida tropicalis. Conditions: C. tropicalis strain ATCC750. As for the experimental part:
as §1
(§3) The sensitivity of relevant fungal strains to the peptides was determined using Clinical Laboratory Standard Institute (CLSI; formerly NCCLS) Approved Standards. Fungal susceptibility was tested using “Reference Method for Broth Dilution Antifungal Susceptibility Testing of Filamentous Fungi; Approved Standard M38-P”, and yeast susceptibility was tested using “Reference Method for Broth Dilution Antifungal Susceptibility Testing of Yeasts; Approved Standard—Second Edition M27-A”.
Background: Broth dilution looks for growth in wells or tubes with falling amounts of substance.

Another assay relates to Fusarium spp. Briefly: Broth dilution antifungal susceptibility testing, MIC. It is filed as cell-based. Conditions: Fusarium spp. strain DM 2006 1133. As for the experimental part:
as §1, §3

For the next assay, the system named is Penicillium spp. Described as above. It is filed as cell-based. Particulars: Penicillium spp. strain DM 2006 1285b. The protocol: as §1, §3
For assay [1], the system named is Scopulariopsis brevicaulis. The assay is described as above. It is filed as cell-based. Conditions: Scopulariopsis brevicaulis strain DM 2006 1025. As for the experimental part: as §1, §3
Another assay has as its system Fusarium solani. Described as above. The format is cell-based. Conditions: Fusarium solani strain NCPF2877. As for the experimental part: as §1, §3
Another assay relates to Alternaria spp. Described as above. It is filed as cell-based. Conditions: Alternaria spp. strain DM 2006 1218a. The protocol: as §1, §3
Setting [2] is: Candida spp. Type Strains MIC Data table, strain NCPF3953.
Setting [3] is: Malasezzia furfur strain DSM6170.
Where [4] appears, read: C. parapsilosis strain ATCC22019.
Where [5] appears, read: C. parapsilosis strain ATCC90018.

Converted amounts (≈) assume the structure as drawn. Read-outs that look alike come from different tables or passages of the source. Some results are limits rather than exact numbers.

`N=C(N)NCCC[C@H](NC(=O)[C@H](CCCNC(=N)N)NC(=O)[C@H](CCCNC(=N)N)NC(=O)[C@H](CCCNC(=N)N)NC(=O)[C@H](CCCNC(=N)N)NC(=O)[C@H](CCCNC(=N)N)NC(=O)[C@H](CCCNC(=N)N)NC(=O)[C@H](CCCNC(=N)N)NC(=O)[C@H](CCCNC(=N)N)NC(=O)[C@H](CCCNC(=N)N)NC(=O)[C@@H](N)CCCNC(=N)N)C(=O)O` [NP317]: in the assay with C. albicans, the “MIC, Candida albicans NCTC3179” value was found to be 512 µM (≈ 889 µg/mL). In the assay on C. krusei, the “MIC, Candida krusei NCPF3953” value turned out to be 32 µM (≈ 55.6 µg/mL). Moreover, the MIC against Malasezzia furfur was less than 15.6 µM; in the assay on Trichophyton rubrum, 0.25 µM (≈ 0.434 µg/mL); against C. parapsilosis it was 256 µM (≈ 444 µg/mL).

Consider `N=C(N)NCCC[C@H](NC(=O)[C@H](CCCNC(=N)N)NC(=O)[C@H](CCCNC(=N)N)NC(=O)[C@H](CCCNC(=N)N)NC(=O)[C@H](CCCNC(=N)N)NC(=O)[C@H](CCCNC(=N)N)NC(=O)[C@H](CCCNC(=N)N)NC(=O)[C@H](CCCNC(=N)N)NC(=O)[C@H](CCCNC(=N)N)NC(=O)[C@H](CCCNC(=N)N)NC(=O)[C@H](CCCNC(=N)N)NC(=O)[C@H](CCCNC(=N)N)NC(=O)[C@@H](N)CCCNC(=N)N)C(=O)O` [NP318], for which, in the assay with C. albicans, the “MIC, Candida albicans NCTC3179” value worked out at 4 µM (≈ 8.19 µg/mL). Also, the MIC against C. krusei (C. krusei strain ATCC6258) is less than 16 µM; with C. krusei (C. krusei strain NCPF3953), 8 µM (≈ 16.4 µg/mL); against Malasezzia furfur (setting [3]), 62.5 µM (≈ 128 µg/mL); with Trichophyton rubrum (Trichophyton rubrum strain NCPF118), more than 2 µM; in the assay on C. parapsilosis (setting [4]) it was 256 µM (≈ 524 µg/mL). Besides, the “MIC, Candida krusei NCPF3953” value against C. krusei (setting [2]) was 8 µM (≈ 16.4 µg/mL).

For `N=C(N)NCCC[C@H](NC(=O)[C@H](CCCNC(=N)N)NC(=O)[C@H](CCCNC(=N)N)NC(=O)[C@H](CCCNC(=N)N)NC(=O)[C@H](CCCNC(=N)N)NC(=O)[C@H](CCCNC(=N)N)NC(=O)[C@H](CCCNC(=N)N)NC(=O)[C@H](CCCNC(=N)N)NC(=O)[C@H](CCCNC(=N)N)NC(=O)[C@H](CCCNC(=N)N)NC(=O)[C@H](CCCNC(=N)N)NC(=O)[C@H](CCCNC(=N)N)NC(=O)[C@@H](N)CCCNC(=N)N)C(=O)O` [NP337], in the assay with C. albicans, the “MIC, Candida albicans ATCC24433” value turned out to be 2 µM (≈ 4.1 µg/mL). In the assay with C. albicans, the “MIC, Candida albicans ATCC90028” value was 4 µM (≈ 8.19 µg/mL). Besides, the “MIC, Candida albicans NCTC3179” value against C. albicans was found to be 2 µM (≈ 4.1 µg/mL). Also, the MIC stood at 2 µM (≈ 4.1 µg/mL) against C. krusei (C. krusei strain ATCC6258); 16 µM (≈ 32.8 µg/mL) with C. krusei (C. krusei strain NCPF3953); 31.25 µM (≈ 64 µg/mL) with Malasezzia furfur (setting [3]); 32 µM (≈ 65.6 µg/mL) in the assay on C. parapsilosis (setting [4]); 128 µM (≈ 262 µg/mL) against C. parapsilosis (setting [5]); 2 µM (≈ 4.1 µg/mL) with C. tropicalis. Further, the “MIC, Candida krusei NCPF3953” value against C. krusei (setting [2]) is 16 µM (≈ 32.8 µg/mL).

Turning to `CC(=O)N[C@@H](CCCNC(=N)N)C(=O)N[C@@H](CCCNC(=N)N)C(=O)N[C@@H](CCCNC(=N)N)C(=O)N[C@@H](CCCNC(=N)N)C(=O)N[C@@H](CCCNC(=N)N)C(=O)N[C@@H](CCCNC(=N)N)C(=O)N[C@@H](CCCNC(=N)N)C(=O)N[C@@H](CCCNC(=N)N)C(=O)N[C@@H](CCCNC(=N)N)C(=O)N[C@@H](CCCNC(=N)N)C(=O)N[C@@H](CCCNC(=N)N)C(=O)N[C@@H](CCCNC(=N)N)C(=O)N[C@@H](CCCNC(=N)N)C(N)=O` [NP338], the “MIC, Candida albicans ATCC24433” value in the assay on C. albicans was found to be 2 µM (≈ 4.18 µg/mL). For the same molecule, in the assay with C. albicans, the “MIC, Candida albicans ATCC90028” value came to 4 µM (≈ 8.36 µg/mL). Further, in the assay on C. albicans, the “MIC, Candida albicans NCTC3179” value was 2 µM (≈ 4.18 µg/mL). The MIC against C. krusei (C. krusei strain ATCC6258) was 2 µM (≈ 4.18 µg/mL); against C. krusei (C. krusei strain NCPF3953), 8 µM (≈ 16.7 µg/mL); against Malasezzia furfur (setting [3]), less than 15.6 µM; against C. parapsilosis (setting [4]), 8 µM (≈ 16.7 µg/mL); in the assay on C. parapsilosis (setting [5]) it was 128 µM (≈ 267 µg/mL); in the assay with C. tropicalis, 2 µM (≈ 4.18 µg/mL). Besides, the “MIC, Candida krusei NCPF3953” value in the assay with C. krusei (setting [2]) was 8 µM (≈ 16.7 µg/mL).

As to `CC(=O)N[C@H](CCCNC(=N)N)C(=O)N[C@H](CCCNC(=N)N)C(=O)N[C@H](CCCNC(=N)N)C(=O)N[C@H](CCCNC(=N)N)C(=O)N[C@H](CCCNC(=N)N)C(=O)N[C@H](CCCNC(=N)N)C(=O)N[C@H](CCCNC(=N)N)C(=O)N[C@H](CCCNC(=N)N)C(=O)N[C@H](CCCNC(=N)N)C(=O)N[C@H](CCCNC(=N)N)C(=O)N[C@H](CCCNC(=N)N)C(=O)N[C@H](CCCNC(=N)N)C(=O)N[C@H](CCCNC(=N)N)C(N)=O` [NP340, Ac-dRdRdRdRdRdRdRdRdRdRdRdRdR-NH2], the “MIC, Candida albicans ATCC90028” value with C. albicans was found to be 2 µM (≈ 4.18 µg/mL). The MIC in the assay on C. krusei (C. krusei strain ATCC6258) was 4 µM (≈ 8.36 µg/mL); against C. parapsilosis (setting [4]), 2 µM (≈ 4.18 µg/mL); against C. parapsilosis (setting [5]) it was 2 µM (≈ 4.18 µg/mL); against C. tropicalis, 2 µM (≈ 4.18 µg/mL).

Consider Poly-L-Arginine (MW 5-15 kDa) [NP121], for which the MIC is recorded as 156 (μg/ml) against Fusarium spp.; 15.6 (μg/ml) against Penicillium spp.; 3.9 (μg/ml) in assay [1]; 7.8 (μg/ml) with Fusarium solani; 13.2 (μg/ml) in the assay on Alternaria spp..

Consider Poly-L-Lysine (MW 0.5-2 kDa) [NP112], for which the MIC in the assay on Malasezzia furfur (setting [3]) is listed as 512 (μg/ml).

Regarding Poly-L-Lysine (MW 10-20 kDa) [NP108], the MIC against Fusarium spp. is given as 125 (μg/ml); against Penicillium spp., 31.2 (μg/ml); in assay [1], 3.9 (μg/ml); in the assay with Fusarium solani, 256 (μg/ml); in the assay with Alternaria spp., 62.5 (μg/ml).
